Laboratory results from patent US20090270413A1, “DI-T-BUTYLPHENYL PIPERAZINES AS CALCIUM CHANNEL BLOCKERS” (priority 2008, published 2009).

Key:
[1] = target: T1, Cav3.1 (T-type channel alpha-1G) (Homo sapiens, UniProt O43497); test: T-type calcium channel voltage-clamp assay, Cav3.1; format: cell-based; settings: read-out: Cav 3.1 IC50
T1 construct: expressed in transfected cells; host or cells: HEK 293
Description: (§1) The T-type calcium channel blocking activity of the compounds of this invention may be readily determined using the methodology well known in the art described by Xia, et al., Assay and Drug Development Tech., 1 (5), 637-645 (2003).
(§2) In a typical experiment ion channel function from HEK 293 cells expressing the T-type channel alpha-1G, H, or I (CaV 3.1, 3.2, 3.3) is recorded to determine the activity of compounds in blocking the calcium current mediated by the T-type channel alpha-1G, H, or I (CaV 3.1, 3.2, 3.3). In this T-type calcium (Ca^2+) antagonist voltage-clamp assay calcium currents are elicited from the resting state of the human alpha-1G, H, or I (CaV 3.1, 3.2, 3.3) calcium channel as follows. Sequence information for T-type (Low-voltage activated) calcium channels are fully disclosed in e.g., U.S. Pat. No. 5,618,720, U.S. Pat. No. 5,686,241, U.S. Pat. No. 5,710,250,U.S. Pat. No. 5,726,035, U.S. Pat. No. 5,792,846, U.S. Pat. No. 5,846,757, U.S. Pat. No. 5,851,824, U.S. Pat. No. 5,874,236, U.S. Pat. No. 5,876,958, U.S. Pat. No. 6,013,474, U.S. Pat. No. 6,057,114, U.S. Pat. No. 6,096,514, WO 99/28342, and J. Neuroscience, 19 (6):1912-1921 (1999). Cells expressing the t-type channels were grown in H3D5 growth media which is comprised DMEM, 6% bovine calf serum (HYCLONE), 30 micromolar Verapamil, 200 microgram/ml Hygromycin B, 1× Penicillin/Streptomycin. Glass pipettes are pulled to a tip diameter of 1-2 micrometer on a pipette puller. The pipettes are filled with the intracellular solution and a chloridized silver wire is inserted along its length, which is then connected to the headstage of the voltage-clamp amplifier. Trypsinization buffer was 0.05% Trypsin, 0.53 mM EDTA. The extracellular recording solution consists of (mM): 130 mM NaCl, 4 mM KCl, 1 mM MgCl2, 2 mM CaCl2, 10 mM HEPES, 30 Glucose, pH 7.4. The internal solution consists of (mM): 135 mM CsMeSO4, 1 MgCl2, 10 CsCl, 5 EGTA, 10 HEPES, pH 7.4, or 135 mM CsCl, 2 MgCl2, 3 MgATP, 2 Na2ATP, 1 Na2GTP, 5 EGTA, 10 HEPES, pH 7.4. Upon insertion of the pipette tip into the bath, the series resistance is noted (acceptable range is between 1-4 megaohm). The junction potential between the pipette and bath solutions is zeroed on the amplifier. The cell is then patched, the patch broken, and, after compensation for series resistance (>=80%), the voltage protocol is applied while recording the whole cell Ca2+ current response. Voltage protocols: (1) −80 mV holding potential every 20 seconds pulse to −20 mV for 40 msec duration; the effectiveness of the drug in inhibiting the current mediated by the channel is measured directly from measuring the reduction in peak current amplitude initiated by the voltage shift from −80 mV to −20 mV; (2). −100 mV holding potential every 15 seconds pulse to −20 mV for 40 msec duration; the effectiveness of the drug in inhibiting the current mediated by the channel is measured directly from measuring the reduction in peak current amplitude initiated by the shift in potential from −100 mV to […]. The difference in block at the two holding potentials was used to determine the effect of drug at differing levels of inactivation induced by the level of resting state potential of the cells. After obtaining control baseline calcium currents, extracellular solutions containing increasing concentrations of a test compound are washed on. Once steady state inhibition at a given compound concentration is reached, a higher concentration of compound is applied. % inhibition of the peak inward control Ca2+ current during the depolarizing step to −20 mV is plotted as a function of compound concentration.

Human Cav2.2 channels = target: T2, Human Cav2.2 channels (Homo sapiens, UniProt Q00975); test: Block of Cav2.2 (N-type) channels expressed in HEK293 cells; format: cell-based; settings: for inhibition at 10 µM / inhibition at 30 µM: HEK293; for inhibition at 10 µM: read-out: Cav 2.2 % Inh @ 10 μM; for inhibition at 30 µM: read-out: Cav 2.2 % Inh @ 30 μM; for IC50: read-out: Cav 2.2 IC50
T2 construct: expressed in transfected cells
T2 sequence (Q00975 whole entry): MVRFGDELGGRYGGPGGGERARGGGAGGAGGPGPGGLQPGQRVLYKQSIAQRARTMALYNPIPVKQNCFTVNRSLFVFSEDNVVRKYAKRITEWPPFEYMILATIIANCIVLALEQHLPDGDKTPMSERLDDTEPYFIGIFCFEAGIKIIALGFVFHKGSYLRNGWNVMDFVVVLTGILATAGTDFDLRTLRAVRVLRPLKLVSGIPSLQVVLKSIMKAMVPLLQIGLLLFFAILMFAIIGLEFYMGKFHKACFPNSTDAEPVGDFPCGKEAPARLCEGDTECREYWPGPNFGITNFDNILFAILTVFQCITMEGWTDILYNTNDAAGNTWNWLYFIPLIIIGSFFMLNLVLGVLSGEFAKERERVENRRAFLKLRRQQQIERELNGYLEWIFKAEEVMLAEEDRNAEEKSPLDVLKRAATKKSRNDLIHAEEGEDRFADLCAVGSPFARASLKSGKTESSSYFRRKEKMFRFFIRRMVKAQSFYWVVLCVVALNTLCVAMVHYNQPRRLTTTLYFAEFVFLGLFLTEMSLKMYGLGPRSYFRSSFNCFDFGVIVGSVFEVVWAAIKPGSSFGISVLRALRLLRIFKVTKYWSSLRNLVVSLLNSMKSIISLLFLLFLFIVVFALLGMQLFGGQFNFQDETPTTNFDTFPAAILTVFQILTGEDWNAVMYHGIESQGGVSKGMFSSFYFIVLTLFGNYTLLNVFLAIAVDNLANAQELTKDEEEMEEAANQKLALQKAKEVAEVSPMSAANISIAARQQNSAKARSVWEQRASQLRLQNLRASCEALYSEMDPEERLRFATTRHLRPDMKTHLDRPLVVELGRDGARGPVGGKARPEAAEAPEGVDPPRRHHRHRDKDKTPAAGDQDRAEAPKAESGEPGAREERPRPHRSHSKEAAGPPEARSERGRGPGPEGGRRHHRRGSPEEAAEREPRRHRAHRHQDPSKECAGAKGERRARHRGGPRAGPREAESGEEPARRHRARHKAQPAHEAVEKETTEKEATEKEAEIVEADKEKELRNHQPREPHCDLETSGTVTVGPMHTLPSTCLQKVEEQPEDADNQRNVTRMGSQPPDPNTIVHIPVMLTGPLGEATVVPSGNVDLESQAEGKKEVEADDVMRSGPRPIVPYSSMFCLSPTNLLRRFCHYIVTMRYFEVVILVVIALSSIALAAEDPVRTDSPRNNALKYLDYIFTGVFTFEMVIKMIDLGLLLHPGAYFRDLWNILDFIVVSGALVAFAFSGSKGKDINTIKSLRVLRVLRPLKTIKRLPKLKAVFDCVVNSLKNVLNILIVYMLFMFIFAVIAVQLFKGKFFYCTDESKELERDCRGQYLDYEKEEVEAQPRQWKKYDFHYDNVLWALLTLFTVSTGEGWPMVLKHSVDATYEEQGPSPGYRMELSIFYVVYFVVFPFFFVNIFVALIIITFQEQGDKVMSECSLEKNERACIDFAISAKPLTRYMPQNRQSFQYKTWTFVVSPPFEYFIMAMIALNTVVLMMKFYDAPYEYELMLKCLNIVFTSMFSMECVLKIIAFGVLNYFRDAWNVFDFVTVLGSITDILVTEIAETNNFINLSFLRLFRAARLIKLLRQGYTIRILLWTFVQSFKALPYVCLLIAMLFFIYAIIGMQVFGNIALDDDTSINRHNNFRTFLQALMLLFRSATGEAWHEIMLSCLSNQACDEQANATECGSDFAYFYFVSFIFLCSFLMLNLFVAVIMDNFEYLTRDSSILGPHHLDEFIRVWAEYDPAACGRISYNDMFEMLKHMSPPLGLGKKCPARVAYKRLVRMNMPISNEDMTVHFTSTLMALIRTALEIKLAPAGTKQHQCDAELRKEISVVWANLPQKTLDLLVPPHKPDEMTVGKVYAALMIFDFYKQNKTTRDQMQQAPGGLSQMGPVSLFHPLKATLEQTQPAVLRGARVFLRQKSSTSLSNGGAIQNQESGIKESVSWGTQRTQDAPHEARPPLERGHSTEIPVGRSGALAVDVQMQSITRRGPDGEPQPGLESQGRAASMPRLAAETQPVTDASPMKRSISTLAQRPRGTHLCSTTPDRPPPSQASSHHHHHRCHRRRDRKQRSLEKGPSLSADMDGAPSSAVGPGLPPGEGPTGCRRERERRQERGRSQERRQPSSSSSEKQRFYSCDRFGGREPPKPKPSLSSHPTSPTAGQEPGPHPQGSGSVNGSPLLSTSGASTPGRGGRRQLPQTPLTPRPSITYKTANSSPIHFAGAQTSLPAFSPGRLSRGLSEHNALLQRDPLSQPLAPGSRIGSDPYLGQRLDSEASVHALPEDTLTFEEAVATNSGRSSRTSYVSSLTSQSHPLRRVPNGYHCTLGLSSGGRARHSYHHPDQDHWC
T2 sequence (P54289 25-956 partner limits assumed): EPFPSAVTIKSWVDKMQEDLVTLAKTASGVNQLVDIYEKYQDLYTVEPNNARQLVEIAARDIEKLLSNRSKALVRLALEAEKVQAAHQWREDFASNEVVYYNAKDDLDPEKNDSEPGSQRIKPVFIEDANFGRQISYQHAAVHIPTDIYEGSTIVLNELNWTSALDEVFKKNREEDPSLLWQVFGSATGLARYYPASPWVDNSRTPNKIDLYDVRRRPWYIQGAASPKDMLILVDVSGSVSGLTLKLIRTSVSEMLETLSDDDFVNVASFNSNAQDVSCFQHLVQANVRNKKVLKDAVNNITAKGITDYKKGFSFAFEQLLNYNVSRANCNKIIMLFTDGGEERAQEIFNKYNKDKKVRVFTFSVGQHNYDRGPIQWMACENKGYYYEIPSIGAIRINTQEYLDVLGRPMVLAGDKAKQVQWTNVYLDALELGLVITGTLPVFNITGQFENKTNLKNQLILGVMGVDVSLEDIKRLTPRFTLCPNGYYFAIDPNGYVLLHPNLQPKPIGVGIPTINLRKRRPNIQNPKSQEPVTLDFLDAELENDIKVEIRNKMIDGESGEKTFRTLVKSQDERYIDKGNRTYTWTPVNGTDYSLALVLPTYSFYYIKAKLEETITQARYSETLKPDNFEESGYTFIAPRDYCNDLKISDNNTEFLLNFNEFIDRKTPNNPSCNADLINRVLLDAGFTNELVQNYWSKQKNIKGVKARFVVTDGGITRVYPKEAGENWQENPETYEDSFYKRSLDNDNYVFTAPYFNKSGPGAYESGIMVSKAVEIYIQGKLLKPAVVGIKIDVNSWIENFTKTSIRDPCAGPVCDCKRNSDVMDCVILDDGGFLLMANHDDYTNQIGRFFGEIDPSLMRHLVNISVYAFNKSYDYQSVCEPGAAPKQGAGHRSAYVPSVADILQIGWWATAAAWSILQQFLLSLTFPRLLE
T2 sequence (P54289 957-1103 partner limits assumed): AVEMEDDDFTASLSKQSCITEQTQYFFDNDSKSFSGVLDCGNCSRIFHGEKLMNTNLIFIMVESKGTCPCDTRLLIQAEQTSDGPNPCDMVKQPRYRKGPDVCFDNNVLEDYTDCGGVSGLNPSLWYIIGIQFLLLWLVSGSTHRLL
T2 sequence (P54284 whole entry partner): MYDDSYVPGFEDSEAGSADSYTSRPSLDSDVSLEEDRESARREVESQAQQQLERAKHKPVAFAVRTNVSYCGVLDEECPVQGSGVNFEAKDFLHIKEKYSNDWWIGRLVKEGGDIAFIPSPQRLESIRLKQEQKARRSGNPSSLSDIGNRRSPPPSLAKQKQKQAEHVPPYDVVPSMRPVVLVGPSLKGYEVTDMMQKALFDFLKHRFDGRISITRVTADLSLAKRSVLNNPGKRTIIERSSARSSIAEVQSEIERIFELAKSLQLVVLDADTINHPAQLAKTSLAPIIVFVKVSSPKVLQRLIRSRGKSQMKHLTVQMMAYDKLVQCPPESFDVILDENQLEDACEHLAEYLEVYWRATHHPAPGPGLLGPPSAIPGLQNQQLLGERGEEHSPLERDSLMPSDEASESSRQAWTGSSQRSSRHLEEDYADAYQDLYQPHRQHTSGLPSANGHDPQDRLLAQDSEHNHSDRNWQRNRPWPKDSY
In short: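 HEK293 cells co-expressing Cav2.2 with α2δ, β subunits and Kir2.3. Fluo-4 calcium influx: 30 min compound incubation at 25 °C in 4 mM (resting) or 12, 25 or 30 mM K+ (open/inactivated), then 70 mM K+ depolarisation. IonWorks HT barium-current patch clamp: 5 min compound, 2 Hz train of twenty 25 ms steps to +20 mV, first versus 20th pulse block.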

[2] = target: T3, Cav3.2 (T-type channel alpha-1H) (Homo sapiens, UniProt O95180); test: T-type calcium channel voltage-clamp assay, Cav3.2; format: cell-based; settings: read-out: Cav 3.2 IC50
T3 construct: expressed in transfected cells; host or cells: HEK 293
Description: as §1, §2

[3] = system: T-type over L-type channels; settings: cited from earlier work

IC50 [1] [nM] | inhibition at 10 µM (Human Cav2.2 channels) [%] | inhibition at 30 µM (Human Cav2.2 channels) [%] | IC50 (Human Cav2.2 channels) [nM] | IC50 [2] [nM] | Structure (SMILES) | selective for T-type over L-type channels [3]
490 | 101 | 104 | 1480 | 800 | CC(C)(C)c1cc(N2CCN(C(=O)c3ccc(OCC(F)(F)F)nc3)CC2)cc(C(C)(C)C)c1 [Compound 47, (4-(3,5-di-tert-butylphenyol)piperazin-1-yl)(6-(2,2,2-trifluoroethoxy)pyridin-3-yl)methanone] | 
370 | 103 | 103 | 1480 | 610 | CC(C)(C)c1cc(N2CCN(C(=O)c3ccccc3)CC2)cc(C(C)(C)C)c1 [Compound 48, (4-(3,5-di-tert-butylphenyl)piperazin-1-yl)(phenyl)methanone] | 
1520 | 102 | 105 | 1660 | 1880 | Cc1cccc(C(=O)N2CCN(c3cc(C(C)(C)C)cc(C(C)(C)C)c3)CC2)n1 [Compound 49, (4-(3,5-di-tert-butylphenyl)piperazin-1-yl)(6-methylpyridin-2-yl)methanone] | 
 |  |  |  |  | COCC(=O)O[C@]1(CCN(C)CCCc2nc3ccccc3[nH]2)CCc2cc(F)ccc2[C@@H]1C(C)C [Mibefradil] | 10-30 fold
